Data taken from patent publication US12485147B2, “Method for producing cell mass including pituitary tissue, and cell mass thereof” (SUMITOMO CHEMICAL COMPANY, LIMITED, priority 2017, dated 2025).

How the values were obtained:
Format in all cases: cell-based
[1] = tested on: Human iPS cells (HC-6 #10 strain); experiment: Cell mass from human iPS cells using BMP signal transduction pathway inhibiting substance (K02288) after addition of BMP4; bright field observation and immunostaining; conditions: K02288 300 nM added on day 3, 6 or 10; day 28
Procedure: Human iPS cells (HC-6 #10 strain, obtained from RIKEN) were cultured under feeder-free conditions according to the method described in Scientific Reports, 4, 3594 (2014). As the feeder-free medium, StemFit medium was used and, as the feeder-free scaffold, Laminin 511-E8 was used.
(§1) Specific maintenance culturing operation was performed in the same manner as in Example 1.
The thus-prepared subconfluent human iPS cells were washed with PBS, subjected to an enzyme treatment using Accumax, a serum-free medium for differentiation induction was added, and the cells were scraped from the surface of the culture dish by using a cell scraper and dispersed into single cells by pipetting. Thereafter, the aforementioned human ES cells dispersed into single cells were suspended in 100 μl of a serum-free medium at 9×10^3 cells per well of a non-cell-adhesive 96-well culture plate (PrimeSurface 96V-bottom plate, manufactured by SUMITOMO BAKELITE), and cultured in suspension under the conditions of 37° C., 5% CO2. […]

[2] = tested on: Human ES cells (KhES-1 strain); experiment: Effect of compound treatment before differentiation induction in production of cell mass containing pituitary tissue; bright field observation; conditions: day 28
Procedure: Human ES cells (KhES-1 strain) were cultured under feeder-free conditions according to the method described in Scientific Reports, 4, 3594 (2014). As the feeder-free medium, StemFit medium was used and, as the feeder-free scaffold, Laminin 511-E8 was used. Specific maintenance culturing operation was performed in the same manner as in Example 1. As a pre-treatment for differentiation induction of the cultured cells, cells under 4 conditions were maintenance cultured under conditions in which, condition in which nothing is simultaneously added with medium change with […] medium (Control), conditions in which 300 nM SAG alone is added (+300 nM SAG), conditions in which 5 μM SB-431542 alone is added (+5 μM SB-431542), and conditions in which SAG and SB431542 are simultaneously added (+SAG/SB) at 6 days after seeding. The next day of the above-mentioned treatment, human ES cells under 4 conditions that reached subconfluence were each subjected to differentiation induction by suspension culturing into a cell mass containing pituitary tissue according to the method described in Example 1. Bright field observation was performed under an inverted microscope on day 28 from the start of suspension culturing (FIGS. 6A-D).

[3] = tested on: Human ES cells (KhES-1 strain); experiment: Addition conditions of Sonic hedgehog signal transduction pathway activating substance (SAG) in production of cell mass containing pituitary tissue; bright field observation; conditions: day 28
Procedure: (§2) Human ES cells (KhES-1 strain, obtained from Kyoto University) were cultured under feeder-free conditions according to the method described in Scientific Reports, 4, 3594 (2014). As the feeder-free medium, StemFit medium was used and, as the feeder-free scaffold, Laminin 511-E8 was used.
as §1
(§3) Thereafter, suspension culturing in a 96 well plate was started under conditions similar to those in Example 1.
A serum-free medium not containing Y27632 and containing IWP-2, SB-431542, BMP4, and SAG was added at 100 μl per well on day 2 from the start of suspension culturing. BMP4 was added at 3 nM to the medium so that the final concentration in the well would be 1.5 nM. SAG was added at a final concentration of 100, 300, 500, 700 nM, 1, 2, 5 μM as a Sonic hedgehog signal transduction pathway activating substance. The condition without addition of a Sonic hedgehog signal transduction pathway activating substance during the suspension culturing period was taken as the control (-SAG condition, FIG. 5A).
A half amount of the medium was changed with a serum-free medium not containing Y27632 or BMP4, and containing IWP-2, SB-431542, each concentration of SAG on days 6, 10, 13, 17, 21, 24 from the start of suspension culturing. […]

[4] = tested on: Human ES cells (KhES-1 strain); experiment: Addition concentration of BMP4 in production of cell mass containing pituitary tissue; bright field observation; conditions: 0.5 nM, 1.5 nM or 5 nM BMP4 added once on day 2; day 28
Procedure: as §2, §1, §3
A serum-free medium not containing Y27632 and containing IWP-2, SB-431542, BMP4, and SAG was added at 100 μl per well on day 2 from the start of suspension culturing. In this case, the amount of BMP4 to be added was under 4 conditions of 0.5 nM, 1.5 nM, 5 nM and no addition control. BMP4 was added at twice the concentration set for the medium so that the final concentration set for the well could be achieved. SAG was added at 4 μM to the medium so that the final concentration in the well would be 2 μM.
A half amount of the medium was changed with a serum-free medium not containing Y27632 or BMP4 and containing IWP-2, SB-431542 and SAG on days 6, 10, 13, 17, 21 and 24 from the start of suspension culturing.
Bright field observation was performed under an inverted microscope on day 28 from the start of suspension culturing (FIGS. 8A-D).

[5] = tested on: Human ES cells (KhES-1 strain); experiment: Timing of addition of BMP4 in production of cell mass from human ES cells; bright field observation; conditions: for structure of cell mass (bright field): observed day 10
Procedure: as §2, §1, §3
The condition without addition of a BMP signal transduction pathway activating substance during the suspension culturing period was taken as the control (-BMP4 condition, FIG. 3A). Thereafter, in the condition with the addition of a BMP signal transduction pathway activating substance on days 1, 2 or 3 from the start of suspension culturing (Day1-3+BMP4 condition, FIGS. 3B-D), a serum-free medium not containing Y27632 and containing IWP-2, SB-431542, BMP4 was added at 100 μl per well. BMP4 was added at 3 nM to the medium so that the final concentration in the well would be 1.5 nM. […] On day 10 from the start of suspension culturing, bright field observation was performed using an inverted microscope (manufactured by KEYENCE CORPORATION, BIOREVO) (FIGS. 3A-D).

In the case of COc1cc(-c2cc(-c3cccc(O)c3)cnc2N)cc(OC)c1OC [K02288, 3-[6-amino-5-(3,4,5-trimethoxyphenyl)-3-pyridinyl]-phenol], the “cell mass formation (bright field)” value [1] is reported as “a cell mass in which nonneural epithelial tissue surrounds neural tissue of the center part was formed”.

With CNC1CCC(N(Cc2cccc(-c3ccncc3)c2)C(=O)c2sc3ccccc3c2Cl)CC1 (stereo not shown) [SAG] the “size of cell mass” value ([2]; pre-treatment with 300 nM SAG alone vs no addition) was “cell mass became large”, the “presence of mesenchymal cell” value ([2]; pre-treatment with 300 nM SAG alone) was “the presence of a mesenchymal cell could also be confirmed” and the “size of cell mass and formation of pituitary tissue on the surface” value ([3]; SAG 100 nM, 300 nM, 500 nM, 700 nM, 1 μM or 2 μM compared with 5 μM) was “the size of the cell mass was larger and formation of pituitary tissue on the surface of cell mass was fine”. For the same molecule, the “structure of cell mass (bright field)” value ([3]; SAG 100, 300, 500, 700 nM, 1, 2, 5 μM added on day 2, compared with no SAG) was “cell masses with the nonneural epithelial tissue invaginated like Rathke's pouch on the surface and containing neuroepithelium-like tissue and mesenchymal cells in the inside”.

B1: BMP4: BMP protein; BMP signal transduction pathway activating substance (protein, UniProt P12644 293-408, looked up)
Bone morphogenetic protein 4: SPKHHSQRARKKNKNCRRHSLYVDFSDVGWNDWIVAPPGYQAFYCHGDCPFPLADHLNSTNHAIVQTLVNSVNSSIPKACCVPTELSAISMLYLDEYDKVVLKNYQEMVVEGCGCR
In the case of B1, the “nonneural epithelial structure on surface of cell mass” value [4] is reported as “a nonneural epithelial structure was formed on the surface of the cell mass”, the “effective timing of addition from start of suspension culturing for formation of cell mass coated with nonneural epithelial tissue” value ([5]; BMP4 1.5 nM) is reported as ≤ 72 h and the “structure of cell mass (bright field)” value ([5]; BMP4 1.5 nM added on day 1 or day 2) is reported as “cell masses containing neural tissue and nonneural epithelial tissue and having a two-layer structure in which a center part with a neuroepithelium-like structure is covered with a nonneural epithelium-like layer were formed”. The “structure of cell mass (bright field)” value ([5]; BMP4 1.5 nM added on day 3 (and day 6)) was “outer nonneural epithelium-like tissue was not formed” and the “size of embryoid body” value ([5]; BMP4 added on day 2 compared with day 1, day 10) was “larger than the embryoid body obtained under the condition with the addition of BMP4 on day 1”.
